Data: patent publication US9474749B2 (priority 2004, dated 2016)
Several values for one entry are separate records, joined by “and”; a condition that tells them apart may be missing. Equal values may be shown once. Read-outs that look alike come from different tables or passages of the source.

How the values were obtained:
BACE-2 = BACE-2 mRNA expression in HTB-11 cells (RT-PCR); conditions: morphine, 24 hours
Procedure: (§9) SH-SY5Y human neuroblastoma cells (ATCC, USA) were cultured in Dulbecco's modified Eagle's medium/Ham's nutrient mixture (DMEM-F12) (Invitrogen, USA), and HTB-11 human neuroblastoma cells (ATCC, USA) were cultured in Minimum Essential Medium Alpha Medium (MEM-α) (Invitrogen, USA). […] All treatments were performed under a sterile hood.
(§10) After the treatment time-period, cells were harvested, and total RNA was extracted using RNeasy RNA Isolation kit (Qiagen) following the manufacturer's procedures. Total RNA yield was determined using a Spectrophotometer RNA/DNA calculator (Pharmacia Biotech). Total RNA concentration was then standardized for semi-quantitative RT-PCR, which was carried out in a Geneamp Thermocycler PCR System 9700 (P.E. Applied Biosystems). […] PCR products and a 100 bp DNA marker were then loaded in a 2% agarose gel stained with ethidium bromide. Gel electrophoresis was performed using a power-supply (E-C Apparatus Corp.) set at 110V with constant amperage for 1.5 hours. Gels were then photographed using a Gel Documentation System (UVP), and bands analyzed using Gel-Pro Analyzer (MediaCybernetics) on a P4 Windows machine.

NMDA NR2B Subunit = assay: NMDA NR2B subunit mRNA expression (RT-PCR); type: cell-based, human
Procedure: (§1) Isolation of total RNA was performed via RNA MiniPrep Kit (QIAGEN). Concentration of RNA was determined via GeneQuant II Spectrophotometer (Pharmacia Biotech) by multiplying A260 value with dilution factor and nucleic acid constant (0.04). Agarose gel electrophoresis (1%) was used to check for RNA quality.
(§2) RT and PCR reactions were performed in GeneAmp PCR System 9700 (Applied Biosystems) using reverse transcriptase and Taq DNA Polymerase. Forward and reverse gene specific-primers for various subunits of the 20S proteasome and immunoproteasome were either obtained from the literature or designed through Primer Express Software 2.0 (Applied Biosystems) (Table 4). NMDA receptor subunit primers were also designed (Table 4). NMDA receptor expression was used as a marker of neurodegenerative disease.
(§3) All primers were optimized for annealing temperatures and cycles (Table 5). Gel electrophoresis (2% agarose, 0.01% ethidium bromide) was performed and analyzed using a UV transilluminator (UVP) and GelPro Analyzer Software (Applied Biosystems). Relative band intensity was normalized with β-Actin reference gene.

[1] = tested on: 20S Proteasome LMP7 Subunit (β5i); assay: LMP7 immunoproteasome subunit mRNA expression (RT-PCR); type: cell-based, human
Procedure: as §1, §2, §3

[2] = tested on: SK-N-SH neuroblastoma cell line; assay: Cellular morphology (Form Factor) of neuroblastoma cells; type: cell-based, human; conditions: concomitant morphine and IFNγ
Procedure: Cell viability was determined via Trypan blue exclusion. An inverted light microscope (Nikon) with a phase-contrast filter was used to observe the cells. Pictures of the cells were taken via a digital camera (Optronix) attached to the microscope ocular. Images were uploaded onto ImagePro Plus Software (Applied Biosystems), where cell viability was calculated based on both the number of cells covering the field and the cells that present as dead from the stain. In addition, ImagePro Plus was used for determining cellular morphology. The area and perimeter were found and used in the formula (4π*Area)/(Perimeter)^2, resulting in a value between 0 (a straight line) and 1 (a perfect circle).

20S proteasome = assay: Activity of the whole 20S proteasome (fluorometric); type: cell-based, human
Procedure: (§4) Proteasome function assays were performed in an effort to examine the modulation in levels of protein degradation. Fluorometric assays were performed for both the chymotrypsin activity of the 26S proteasome as well as activity of the whole 20S proteasome using procedures adapted from Kotamraju et al. (Proc. Natl. Acad. Sci. USA, 100:10653-8 (2003)). Excitation at 365 nm and emission at 460 nM of the fluorogenic compound, […] (AMC), were measured using a Spectrofluoroscence Detector (McPherson).

[3] = tested on: Immunoproteasome LMP7 (β5i) Subunit; assay: LMP7 polypeptide expression (Western blot); type: cell-based, human; conditions: 36 and 48 hours
Procedure: (§5) To determine protein concentrations, protein was harvested using the following buffer: 20 mM Hepes (Sigma), 100 mM NaCl (Fisher), 10 mM NaF (Sigma), 1% Triton X-100 (Sigma), 1 mM sodium orthovanadate (Sigma), 10 mM EDTA (Sigma), pH 7.4, 0.1% protease inhibitor cocktail (Sigma), and ddH2O. Homogenized samples were spun in an ultracentrifuge at 10,000G for 20 minutes at 4° C. Concentration was determined via the Bradford assay (Bio-Rad) using bovine serum albumin (BSA, Sigma) for standard curve. To eliminate any potential pipetting error, samples and standards were read in triplicate.
(§6) Western blotting was performed as follows. SDS-polyacrylamide gels (12% for separation and 5% for stacking) were made using the Mini Trans-Blot Cell (Bio-Rad). Based on the concentrations from the protein concentration determination assay, the proteins were mixed with 2× Protein Loading Buffer (0.2M DTT) for a final volume of 24 μL. Tris-Glycine Electrophoresis Buffer (1×) was used in SDS-PAGE, and proteins were separated at constant amperage (35 mA).
(§7) Subsequent protein transfer to a nitrocellulose membrane involved use of the Mini Trans-Blot Cell apparatus run at constant voltage (100V) for 40 minutes. […]
(§8) Substrate (Pierce) was administered as a means of stimulating chemiluminescence. Blots were developed and subsequently analyzed for relative band intensity using Gel-Pro software (Applied Biosystems).

26S proteasome = assay: Chymotrypsin activity of the 26S proteasome (fluorometric); type: cell-based, human
Procedure: as §4

BACE-1 = BACE-1 mRNA expression in HTB-11 cells (RT-PCR); conditions: 24 hours
Procedure: as §9, §10

immunocytes = assay: LPS activation of hemolymph cells from morphine pre-treated animals; conditions: single pre-treatment, morphine 10^−6 M, LPS 1 μg/mL
Ubiquitin = assay: Free ubiquitin (Western blot); type: cell-based, human
Procedure: as §5, §6, §7, §8

[4] = tested on: SK-N-SH neuroblastoma cell line; assay: NO release from SK-N-SH neuroblastoma cells; conditions: morphine sulfate 5 μM; baseline 2 nM NO
Procedure: The human SK-N-SH neuroblastoma cell line (ATCC #HTB-11) was used as a cellular model. Cells were propagated in Minimum Essential Medium alpha (MEMα) with 10% fetal bovine serum (FBS), 2% penicillin/streptomycin, 1.5 g/L NaHCO3, and 1.0 mM pyruvic acid. A 5% CO2 incubator (NAPCO) at 37° C. was used for maintenance of temperature and pH. […] When needed, cells were plated in 6- or 12-well plates using a hemocytometer (2×10^5 cells/well in 6-well plates or 1×10^5 cells/well in 12-well plates). Experimental manipulations were performed under sterile conditions under a lamina airflow hood after cells had adhered to the bottom of the plates.

[5] = tested on: 20S Proteasome X (β5) Subunit; assay: 20S proteasome X subunit protein (Western blot); type: cell-based, human
Procedure: as §5, §6, §7, §8

NMDA NR1 Subunit = assay: NMDA NR1 subunit mRNA expression (RT-PCR); type: cell-based, human
Procedure: as §1, §2, §3

pedal ganglia [6] = assay: NO release from excised pedal ganglia (NO-selective microprobe); type: cell-based, Mytilus edulis
Procedure: For the nitric oxide assay, ten pedal ganglia (per determination) dissected from M. edulis were bathed in 1 mL sterile phosphate buffered saline (PBS). […] For the opiate receptor antagonist experiments, ganglia were pretreated with naloxone for 10 minutes prior to reticuline addition. NO release was monitored with an NO-selective microprobe manufactured by World Precision Instruments (Sarasota, Fla.). The sensor was positioned approximately 100 μm above the respective tissue surface. […] The NO detection system was calibrated daily. The probe was allowed to equilibrate for 10 minutes in the incubation medium free of tissue before being transferred to vials containing the ganglia for another 5 minutes. Manipulation and handling of the ganglia was only performed with glass instruments. Data was acquired using the Apollo-4000 free radical analyzer (World Precision Instruments, Sarasota, Fla.). The experimental values were then transferred to Sigma-Plot and -Stat (Jandel, Calif.) for graphic representation and evaluation.

human saphenous veins = assay: NO release from human saphenous veins; conditions: 2×10^−7 M morphine
pedal ganglia [7] = assay: NO release after daily morphine injections (tolerance); type: in vivo, Mytilus
Procedure: 45 Mytilus animals were divided into three groups. […] Two hours post-injection, NO release was measured.

[8] = tested on: 20S Proteasome X Subunit (β5); assay: 20S proteasome X subunit mRNA expression (RT-PCR); type: cell-based, human; conditions: morphine 5 μM, 24 hours; control 0.716±0.015
Procedure: as §1, §2, §3

Mytilus animals = assay: TNF-α-induced death of animals; conditions: morphine 10^−7 M daily for four days pre-treatment
Procedure: 100 healthy Mytilus animals were treated with 10 U/mL of TNF-α by injection.

[9] = tested on: human immune and vascular tissues; assay: NO release from human immune and vascular tissues; type: cell-based; conditions: morphine 10^−6 M

Procedure for SH-SY5Y cells: At various time points (initial and 1, 2, and 7 days), the cells were washed in phosphate buffered saline (PBS), placed in 250 μL PBS, and assessed for NO release. NO release was measured using an Apollo-4000 free radical analyzer with a 30 μm probe. The probe was calibrated daily with SNAP. Each assay was performed in quadruplicate. The mean±the standard error were graphed for each time point.

CN1CC[C@]23c4c5ccc(O)c4O[C@H]2[C@@H](O)C=C[C@H]3[C@H]1C5 [Morphine, morphine]
BACE-2 expression (BACE-2): up regulates the expression of BACE-2 | NR2B expression (NMDA NR2B Subunit): 1.09±0.06 AU and 1.17±0.04 AU | LMP7 mRNA expression ([1]; 5 μM morphine with rotenone, 24 hours): 0.792±0.001 AU | effect on IFNγ-induced LMP7 mRNA ([1]; p<0.034): blocked the LMP7 increase induced by IFNγ | Form Factor (FF) [2]: 0.58±0.01 | 20S proteasome activity (20S proteasome): decrease in 20S proteasomal function | effect on IFNγ-stimulated LMP7 polypeptide expression [3]: blocked this action | activity of the chymotrypsin functional 26S active site (26S proteasome): 277 ± 8.0 pM | down regulation of BACE-1 expression (BACE-1; 1 μM morphine): 44% | down regulation of BACE-1 expression (BACE-1; 5 μM morphine): 18% | activation of LPS-treated cells (immunocytes): 19.3±3.8% | free ubiquitin (Ubiquitin; 1 μM morphine, control 44): 64 AU | free ubiquitin (Ubiquitin; 5 μM morphine): 125 AU | peak NO release [4]: 22.3 nM | X subunit protein band intensity [5]: 162 AU and 188 AU and 168 AU and 154 AU | NR1 expression (NMDA NR1 Subunit): 1.40±0.056 AU | NO Peak Level (pedal ganglia [6]; ligand 10^−7 M): 24.3 ± 3.1 nM | NO Peak Time (pedal ganglia [6]; ligand 10^−7 M): 0.8 ± 0.2 min | duration of ganglionic NO release (pedal ganglia [6]; reticuline 10^−7 M, morphine 10^−6 M): 5 min | NO released (human saphenous veins): 7 ± 2 nM | NO release (SH-SY5Y cells; 10^−6 M morphine daily for six days, 10^−6 M on the seventh day): 3.4 nM | NO release (SH-SY5Y cells; morphine 10^−6 M): 3 to 4 nM | NO release on day one versus days two, three, and four (pedal ganglia [7]; 0.01 μM morphine daily): level similar | NO release after four days versus day one (pedal ganglia [7]; 1 μM morphine daily): substantially lower | NO release on 10 μM morphine challenge versus one day of 1 μM (pedal ganglia [7]; 1 μM morphine for four days): about half | proteasomal X subunit mRNA expression [8]: 0.868±0.007 AU | effect on TNF-α-induced death (Mytilus animals): reduced the number of animals that died | NO release [9]: 26 to 29 nM
